The values below come from patent publication US5457092A, “Methods of promoting bone growth in mammals comprising administration of modified parathyroid hormone” (Gesellschaft fur Biotechnologische Forschung mbH (GBF), priority 1987, dated 1995).

Assay [1] concerns chondrocytes from sterna of 16-day-old embryonic chicks. The experiment in a line: Stimulation of DNA synthesis in chondrocytes by PTH fragments (Table 1). Type of assay: cell-based, chick. The following applies: for [^3 H]thymidine incorporation: 4 h, control 139 ± 6; for E/C: stimulated / non-induced control cells. As for the experimental part:
Chondrocytes were isolated from sterna of 16-day-old embryonic chicks according to J. Biol. Chem., 261 (1986) 7997-8001 (10; Yasui et al.) with some modifications. Collagenase was dissolved in Hanks' balanced salt solution (0.4 mM Na2 HPO4, 140 mN NaCl, 5.3 mM KCl, 0.4 mM MgSO4, 1.3 mM CaCl2, 0.4 mM KH2 PO4, 0.5 mM MglC2, 5 mM glucose, 0.05% gentamicin) at a concentration of 286 units/ml. Sterna were treated repeatedly for 30 min with collagenase solution at 37° C. Cells first released by this procedure were discarded because of their very poor responsiveness towards PTH. The collagenase treatment was subsequently repeated leading to a highly homogenous cell population of chondrocytes. The cells obtained by a second collagenase treatment were collected by centrifugation (1000 rpm, 10 min), washed twice with medium (Dulbecco's modified Eagle's medium, GIBCO, supplemented with NaHCO3 (45 mM), glutamine (2 mM), penicillin G/streptomycin (65 mg/1 and 100 mg/l, respectively), Hepes (10 mM, pH 7.2), and FCS (10% v/v) and counted.
The DNA synthesis rate was assayed in monolayer culture by the incorporation of ]^3 H]thymidine into perchloric acid-precipitable material. […] After 17 h, the medium was replaced by 200 μl of serum-free medium. After 4 days, chondrocytes were incubated for 4 h with the appropriate effector and 1μ Ci of [^3 H]thymidine. Subsequently, medium was removed and the cells were washed twice with 200 μl of phosphate-buffered saline (PBS: 137 mM NaCl, 2.7 mN KCl, 1.5 mM KH2 PO4, 0.8 mN Na2 HPO4, pH 7.0). Then cells were lysed by 100 μl of 2% (v/v) Nonidet P- 40 and 2% (w/v) sodium dodecyl sulfate treatment and the perchloric acid-insoluble material was precipitated by adding an equal volume of ice-cold 2% (w/v) perchloric acid in the presence of 1% herring sperm DNA as carrier. After storage for 10 min at -20° C., the precipitated material of each well was transferred to glass fiber filters with a Scatron--As semiautomatic cell harvester. Filters were dried at 80° C. for 20 min, transferred into scintillation vials, and 2 ml of scintillation mixture (scintillator 299; United Technology Pachard) were added. Radioactivity of the samples was determined with a β counter (Minimax; United Technology Pachard). Each test consisted of 5 up to 10 identically treated wells and was repeated at least twice with freshly prepared chondrocytes.
The incorporation of [^3 H]thymidine by non-induced control cells and by stimulated cells is shown by C and E, respectively. The results shown mean ±S.E. for n parallel cell cultures.
In general terms: Dividing cells build labelled thymidine or BrdU into new DNA.

The test system of assay [2] is osteoblast enriched rat embryo calvaria cell cultures. In words: Cyclic AMP production in rat embryo calvaria cell cultures. Type of assay: cell-based. The following applies: 100 nM; 15 min; control 29 ± 2.9 pmol/mg of protein. As for the experimental part:
(§1) FIG. 10 is a graphical representation showing the dose dependent stimulation by bPTH (1-84) of osteoblast enriched rat embryo calvaria cell cultures. Experimental details for the determination of cyclic AMP (.quadrature.) (15 min after stimulation) and incorporation of [^3 H]thymidine into DNA ( ) and CK ( ) specific activity (24 h after stimulation) are given below. The results are means ±S.E.M., N≥5. In several cases the S.E.M. was less than the size of the symbol. Control values were: cyclic AMP, 25±5 pmol/mg of protein; DNA, 240±30 c.p.m./μg of DNA; CK, 200±20 nmol/min per mg of protein. Statistical significance of differences between treated and corresponding control groups by Student's T test: *P<0.05; **P<0.01.
(§2) Rat calvaria cultures were treated with fragments of PTH derived from the central portion of the molecule.

Assay [3] has the same test system. In words: CK specific activity in rat embryo calvaria cell cultures. The following applies: 100 nM; 24 h; control 457 ± 46 nmol/min per mg of protein. Type of assay: cell-based. Here is the method: as §1, §2
Assay [4] has the same test system. The experiment in a line: DNA synthesis ([3H]thymidine incorporation) in rat embryo calvaria cell cultures. Type of assay: cell-based. Here is the method: as §1
Assay [5] concerns ROS 17/2.8 osteoblast-like cells. In words: Cyclic AMP production in ROS 17/2.8 osteoblast-like cells. Type of assay: cell-based, rat. As to conditions: 400 nM; control 29 ± 5.2 pmol/mg of protein. Here is the method: When cultures of the widely used model for osteoblasts, the osteoblast-likeclone of rat osteosarcoma, ROS 17/2.8 (Endocrinology (Baltimore), 107 (1980) 1494-1503=12; Majeska et al.), were incubated with full-length PTH and PTH fragments (Table 4), cyclic AMP production was stimulated only by bPTH(1-84) and hPTH(1-34), whereas hPTH(25-39), hPTH(27-48), hPTH(28-48) and hPTH(34-47) were ineffective.

The test system is the same in assay [6]. The experiment in a line: CK specific activity in ROS 17/2.8 osteoblast-like cells. Type of assay: cell-based, rat. The following applies: 400 nM; control 698 ± 70 nmol/min per mg of protein.
The test system is the same in assay [7]. The experiment in a line: DNA synthesis in ROS 17/2.8 osteoblast-like cells. Type of assay: cell-based, rat. As to conditions: 400 nM; control 392 ± 58 c.p.m./μg of DNA.

Turning to “hPTH(28-47): PTH fragment 28-47, human source (LQDVHNFVALGAPLAPRDAG; Parathyroid hormone; UniProt P01270 59-78, looked up, fragment)”, the “[^3 H]thymidine incorporation” value is on record as 276 ± 36 cpm in assay [1] (4.5 × 10^-5 mol/l), 202 ± 17 cpm in assay [1] (4.5 × 10^-6 mol/l), 205 ± 22 cpm in assay [1] (4.5 × 10^-7 mol/l) and 196 ± 25 cpm in assay [1] (4.5 × 10^-8 mol/l). In addition, the E/C in assay [1] (4.5 × 10^-5 mol/l) turned out to be 1.99; in assay [1] (4.5 × 10^-6 mol/l) it was 1.45; in assay [1] (4.5 × 10^-7 mol/l), 1.47; in assay [1] (4.5 × 10^-8 mol/l), 1.41. Further, in assay [2], the “Cyclic AMP concentration, effect of fragment (experimental value/control value)” value was 0.52 ± 0.39. Further, the entries for the “CK specific activity, effect of fragment (experimental value/control value)” value in assay [3] and in assay [6] were 2.18 ± 0.12 and 1.66 ± 0.11, respectively. The “stimulation of DNA synthesis (in words)” value in assay [4] was “less”. In addition, the “[3H)Thymidine incorporation, effect of fragment (experimental value/control value)” value in assay [4] (100 nM, 24 h, control 624 ± 73 c.p.m./μg of DNA) is reported as 2.11 ± 0.09. Also, in assay [5], the “Cyclic AMP, effect of fragment (experimental value/control value)” value stood at 1.03 ± 0.16. The “[^3 H]Thymidine incorporation, effect of fragment (experimental value/control value)” value in assay [7] was 1.44 ± 0.11.
